Laboratory results published in ChEMBL document CHEMBL5523691, “SAR study of N'-(Salicylidene)heteroarenecarbohydrazides as promising antifungal agents” (Bioorg Med Chem, 2024).
≈ marks a conversion by molar mass, not a printed value. Calls of active or inactive are those of the source. The calls are words filed in the database; no cut-off is given here.

Key:
Cryptococcus neoformans [1] = assay: Antifungal activity against wild type Cryptococcus neoformans H99 assessed as inhibition of fungal growth incubated for 24 to 72 hrs by optical density based analysis; type: functional; settings: time 24-72 hrs
Cryptococcus neoformans [2] = assay: Fungicidal activity against wild type Cryptococcus neoformans H99 assessed as minimum concentration required to kill fungus measured after 72 hrs by time-kill assay; type: functional
[3] = Cytotoxicity against human A549 cells assessed as cell killing measured after 24 to 48 hrs by MTT assay; type: toxicity, cell-based; settings: time 24-48 hrs, read-out: LD50 (the source's name)
[4] = Selectivity index, ratio of LD50 for human A549 cells to MIC80 for Cryptococcus neoformans H99; type: toxicity; settings: read-out: Selectivity Index
Cryptococcus neoformans [5] = assay: Fungicidal activity against wild type Cryptococcus neoformans H99 assessed as minimum concentration required to kill fungus measured after 24 hrs by time-kill assay; type: functional
Candida albicans = assay: Antifungal activity against Candida albicans assessed as inhibition of fungal growth incubated for 24 to 72 hrs by optical density based analysis; type: functional; settings: time 24-72 hrs
Aspergillus fumigatus = assay: Antifungal activity against Aspergillus fumigatus assessed as inhibition of fungal growth incubated for 24 to 72 hrs by optical density based analysis; type: functional; settings: time 24-72 hrs
Cryptococcus neoformans [6] = assay: Antifungal activity against wild type Cryptococcus neoformans H99 assessed as inhibition of fungal growth in presence of fluconazole; type: functional
Cryptococcus neoformans [7] = assay: Antifungal activity against wild type Cryptococcus neoformans H99 assessed as inhibition of fungal growth in presence of caspofungin; type: functional
Cryptococcus neoformans [8] = assay: Antifungal activity against wild type Cryptococcus neoformans H99 assessed as inhibition of fungal growth in presence of amphotericin B; type: functional
Cryptococcus neoformans [9] = assay: Synergistic antifungal activity against wild type Cryptococcus neoformans H99 assessed as fractional inhibitory concentration index in presence of fluconazole; type: functional
Cryptococcus neoformans [10] = assay: Synergistic antifungal activity against wild type Cryptococcus neoformans H99 assessed as fractional inhibitory concentration index in presence of caspofungin; type: functional
Cryptococcus neoformans [11] = assay: Synergistic antifungal activity against wild type Cryptococcus neoformans H99 assessed as fractional inhibitory concentration index in presence of amphotericin B; type: functional
Cryptococcus neoformans [12] = assay: Antagonistic antifungal activity against wild type Cryptococcus neoformans H99 in presence of fluconazole; type: functional, organism-based
Cryptococcus neoformans [13] = assay: Antagonistic antifungal activity against wild type Cryptococcus neoformans H99 in presence of caspofungin; type: functional, organism-based
Cryptococcus neoformans [14] = assay: Antagonistic antifungal activity against wild type Cryptococcus neoformans H99 in presence of amphotericin B; type: functional, organism-based
Cryptococcus neoformans [15] = assay: Antifungal activity against wild type Cryptococcus neoformans H99 assessed as fractional inhibitory concentration index in presence of amphotericin B; type: functional
Cryptococcus neoformans [16] = assay: Fungicidal activity against wild type Cryptococcus neoformans H99 assessed as minimum concentration required to kill fungus measured after 96 hrs by time-kill assay; type: functional
Cryptococcus neoformans [17] = assay: Fungicidal activity against wild type Cryptococcus neoformans H99 assessed as minimum concentration required to kill fungus measured after 48 hrs by time-kill assay; type: functional
Cryptococcus neoformans [18] = assay: Antifungal activity against wild type Cryptococcus neoformans H99 assessed as fractional inhibitory concentration index in presence of fluconazole; type: functional

Row | Compound | MIC80 (Cryptococcus neoformans [1]) [µg/mL] | MFC100 (Cryptococcus neoformans [2]) [µg/mL] | CC50 [3] [µg/mL] | selectivity ratio [4] | MFC100 (Cryptococcus neoformans [5]) [µg/mL] | MIC80 (Candida albicans) [µg/mL] | MIC80 (Aspergillus fumigatus) [µg/mL] | MIC80 (Cryptococcus neoformans [6]) [µg/mL] | MIC80 (Cryptococcus neoformans [7]) [µg/mL] | MIC80 (Cryptococcus neoformans [8]) [µg/mL] | fractional inhibitory concentration index (FICI) (Cryptococcus neoformans [9]) | fractional inhibitory concentration index (FICI) (Cryptococcus neoformans [10]) | fractional inhibitory concentration index (FICI) (Cryptococcus neoformans [11]) | Activity (Cryptococcus neoformans [12]) | Activity (Cryptococcus neoformans [13]) | Activity (Cryptococcus neoformans [14]) | fractional inhibitory concentration index (FICI) (Cryptococcus neoformans [15]) | MFC100 (Cryptococcus neoformans [16]) [µg/mL] | MFC100 (Cryptococcus neoformans [17]) [µg/mL] | fractional inhibitory concentration index (FICI) (Cryptococcus neoformans [18])
1 | O=C(N/N=C/c1ccc(Br)cc1O)c1ccc(C(F)(F)F)o1 | 1 (≈ 2.65 µM) | 4 (≈ 10.6 µM) | 4 (≈ 10.6 µM) | 4 | – | – | – | – | – | – | – | – | – | – | – | – | – | – | – | –
2 | O=C(N/N=C/c1ccc(Br)cc1O)c1ccc(Br)o1 | 0.12 (≈ 0.309 µM) | – | > 32 | > 533 | 0.5 (≈ 1.29 µM) | 0.5 (≈ 1.29 µM) | 0.5 (≈ 1.29 µM) | 0.015 | 0.015 | 0.015 | 0.25 | 0.37 | 0.53 | inactive | inactive | inactive | – | – | – | –
3 | O=C(N/N=C/c1cc(Br)ccc1O)c1ccc(Br)o1 | 0.12 (≈ 0.309 µM) | – | > 32 | > 533 | 0.25 (≈ 0.644 µM) | 1 (≈ 2.58 µM) | 0.25 (≈ 0.644 µM) | 0.06 | 0.06 | 0.015 | 0.56 | 0.75 | – | inactive | inactive | inactive | 1.12 | – | – | –
4 | O=C(N/N=C/c1ccc(Br)cc1O)c1cc(Br)co1 | 0.5 (≈ 1.29 µM) | – | 16 (≈ 41.2 µM) | 32 | – | – | – | – | – | – | – | – | – | – | – | – | – | 2 (≈ 5.15 µM) | – | –
5 | O=C(N/N=C/c1cc(Br)ccc1O)c1csc(Br)c1 | 0.014 (≈ 0.0346 µM) | – | > 32 | > 1070 | – | 0.125 (≈ 0.309 µM) | 1 (≈ 2.47 µM) | 0.002 | 0.015 | 0.001 | – | 0.14 | 0.53 | inactive | inactive | inactive | – | – | 0.06 (≈ 0.148 µM) | 1.1
